Data as given in patent US20240309015A1, “Methods for the Treatment of Fibrotic Disease” (SHY Therapeutics, LLC, priority 2021, published 2024).

How the values were obtained:
[1] = test system: Smad2/3 phosphorylation; experiment: Phospho-Smad2/3 Inhibition Assay in PANC-1; format: cell-based; conditions: Homo sapiens; 10 μM compound, 3 h; TGF-b1 stimulated PANC-1; western blot; read-out: % inh of Smad2/3 phosphorylation in PANC-1
Protocol: Cell lines: Human tumor-derived pancreatic cancer cell line Panc-1 and mouse muscle myoblast C2C12 were purchased from American Type Culture Collection and grown in complete DMEM-High Glucose, supplemented with penicillin (100 U/mL), streptomycin (100 μg/mL), and 10% heat-inactivated FBS at 37° C. in a humidified incubator with 5% CO2.
Method: Cells were plated at 350000 cells/well density in a 12-well plate, allowed 3 hours to adhere to the plate, then starved in the appropriate medium in the presence of 0.5% FBS overnight. The small molecules to be tested were added to the cells in the final concentration of 10 μM in the presence of 0.3% DMSO for 3 hours incubation at 37° C. For IC50 value determination, serial dilutions of compounds were added to cells under the same conditions. Next, Panc-1 cells were stimulated with 10 ng/ml TGF-b1 for 1 hour, and C2C12 cells were stimulated with 10 ng/ml TGF-b1 for 20 minutes (recombinant human TGF-b1, R&D Systems). After stimulation cells were lysed with lysis buffer containing 1% Triton X-100, EDTA, and Halt™ Protease & Phosphatase Inhibitor Cocktail (Thermo Scientific). Protein concentration was assessed by BCA protein assay (Thermo Scientific). Phosphorylation level of Smad2/Smad3 was determined by western blot.
Western blot protocol: Equal amounts of protein (15-50 μg) were separated by SDS-PAGE and transferred to nitrocellulose membranes (Invitrogen by Thermo Fisher Scientific). The membrane was stained with Ponceau S Stain (Boston BioProducts) to verify uniform protein loading. Membranes were blocked with 10% milk and phosphorylation levels of Smad2/Smad3 were assessed by incubating overnight at 4° C. with the following antibodies: Phospho-Smad2 (Ser465/467) and Phosph-Smad3 (Ser423/425), both from Cell Signaling Technology. Then the membranes were incubated with HRP-conjugated secondary antibody (Jackson Immunoresearch, West Grove, PA). Bands were incubated in Amersham ECL Prime Western Blotting Detection Reagent (GE Healthcare) and visualized using the ChemiDoc MP imaging system (Bio-Rad).

[2] = test system: IL-6; experiment: Mouse IL6 Quantification Assay (LPS-stimulated RAW 264.7); format: cell-based; design: dose or concentration left out as unconfirmed; conditions: RAW264.7, ELISA, read-out: IL-6: % inh.
[3] = test system: KRas G12C mutant; experiment: Ras GTP Binding Domain Inhibition Assay, KRas G12C mutant; conditions: at 20 μM; for KRas G12C mutant + SOS: % inh.: with SOS; for KRas G12C mutant: % inh.: without SOS
In short: (§1)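 His-tagged GTPases, 10-30 μg/mL in Tris-HCl buffer (pH 7.4 or 7.0, MgCl2, DTT), were immobilised on nickel-coated wells overnight at 4° C. Compounds were added at 20 μM or as serial dilutions for IC50 in 1% DMSO for 3 h at room temperature, ±Sos(556-1049) in the final hour. Bound Cy3/Cy5-GTP (100 nM, 45 min) was read after washing.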

[4] = test system: Rho-A; experiment: Ras GTP Binding Domain Inhibition Assay, Rho-A; conditions: at 20 μM; without SOS
In short: as §1

[5] = test system: TNFα; experiment: Mouse TNF Alpha Quantification Assay (LPS-stimulated RAW 264.7); format: cell-based; design: dose or concentration left out as unconfirmed; conditions: RAW264.7, ELISA, read-out: TNFα: % inh.
[6] = test system: KRas wild type; experiment: Ras GTP Binding Domain Inhibition Assay, KRas wild type; conditions: at 20 μM; for KRas wild type + SOS: % inh.: with SOS; for KRas wild type: % inh.: without SOS
In short: as §1

[7] = test system: KRas G12D mutant; experiment: Ras GTP Binding Domain Inhibition Assay, KRas G12D mutant; conditions: at 20 μM; for KRas G12D mutant + SOS: % inh.: with SOS; for KRas G12D mutant: % inh.: without SOS
In short: as §1

Row | KRas G12C mutant + SOS: % inh. [3] | KRas G12C mutant: % inh. [3] | Rho-A: % inh. [4] | KRas wild type + SOS: % inh. [6] | KRas wild type: % inh. [6] | KRas G12D mutant + SOS: % inh. ([7]; Table 7) | KRas G12D mutant + SOS: % inh. ([7]; Table 8) | KRas G12D mutant: % inh. ([7]; Table 7) | KRas G12D mutant: % inh. ([7]; Table 8) | SMILES | inhibition at 10 µM [1] | inhibition [2] | inhibition [5]
1 | D (D = 76-100% inhibition) | B (B = 26-45% inhibition) | B (B = 26-45% inhibition) | D (D = 76-100% inhibition) | 0 (0 = 0% inhibition) |  |  |  |  | COC1CCCN(c2nc(-c3nccn3C)nc3sc(-c4ccn(C(C)C)n4)c(C)c23)C1 (racemic) [Compound 14, rac-6-(1-Isopropyl-1H-pyrazol-3-yl)-4-(3-methoxypiperidin-1-yl)-5-methyl-2-(1-methyl-1H-imidazol-2-yl)thieno[2,3-d]pyrimidine] | 46 to 75% | 76 to 100% | 26 to 45%
2 | D (D = 76-100% inhibition) | C (C = 46-75% inhibition) | C (C = 46-75% inhibition) | D (D = 76-100% inhibition) | B (B = 26-45% inhibition) | D (D = 76-100% inhibition) | D (D = 76-100% inhibition) | C (C = 46-75% inhibition) | C (C = 46-75% inhibition) | Cc1c(-c2ccn(C(C)C)n2)sc2nc(-c3nccn3C)nc(NCC3COCCN3C)c12 (racemic) [Compound 24, rac-6-(1-Isopropyl-1H-pyrazol-3-yl)-5-methyl-2-(1-methyl-1H-imidazol-2-yl)-N-((4-methylmorpholin-3-yl)methyl)thieno[2,3-d]pyrimidin-4-amine] | 0% | 76 to 100% | 1 to 25%
3 | D (D = 76-100% inhibition) | D (D = 76-100% inhibition) | D (D = 76-100% inhibition) | D (D = 76-100% inhibition) | D (D = 76-100% inhibition) | D (D = 76-100% inhibition) | D (D = 76-100% inhibition) | D (D = 76-100% inhibition) | D (D = 76-100% inhibition) | Cc1c(-c2ccn(C(C)C)n2)sc2nc(-c3nccn3C)nc(NCC3CN(C)CCO3)c12 (racemic) [Compound 25, rac-6-(1-Isopropyl-1H-pyrazol-3-yl)-5-methyl-2-(1-methyl-1H-imidazol-2-yl)-N-((4-methylmorpholin-2-yl)methyl)thieno[2,3-d]pyrimidin-4-amine] | 0% | 76 to 100% | 46 to 75%
4 | D (D = 76-100% inhibition) | D (D = 76-100% inhibition) | D (D = 76-100% inhibition) | D (D = 76-100% inhibition) | D (D = 76-100% inhibition) | C (C = 46-75% inhibition) | C (C = 46-75% inhibition) | D (D = 76-100% inhibition) | D (D = 76-100% inhibition) | Cc1c(-c2ccn(C(C)C)n2)sc2nc(-c3nccn3C)nc(NCC3CCCO3)c12 (racemic) [Compound 26, rac-6-(1-Isopropyl-1H-pyrazol-3-yl)-5-methyl-2-(1-methyl-1H-imidazol-2-yl)-N-((tetrahydrofuran-2-yl)methyl)thieno[2,3-d]pyrimidin-4-amine] | 0% | 76 to 100% | 0%
5 | D (D = 76-100% inhibition) | B (B = 26-45% inhibition) | 0 (0 = 0% inhibition) | D (D = 76-100% inhibition) | C (C = 46-75% inhibition) | C (C = 46-75% inhibition) | C (C = 46-75% inhibition) | D (D = 76-100% inhibition) | D (D = 76-100% inhibition) | COc1cc(-c2sc3nc(-c4nccn4C)nc(N[C@@H]4CC[C@H](OC)C4)c3c2-c2ccccc2)ccn1 (racemic) [Compound 44, rac-N-((1R,3S)-3-Methoxycyclopentyl)-6-(2-methoxypyridin-4-yl)-2-(1-methyl-1H-imidazol-2-yl)-5-phenylthieno[2,3-d]pyrimidin-4-amine] | 76 to 100% |  | 
6 | D (D = 76-100% inhibition) | C (C = 46-75% inhibition) | C (C = 46-75% inhibition) | D (D = 76-100% inhibition) | D (D = 76-100% inhibition) | D (D = 76-100% inhibition) | D (D = 76-100% inhibition) | C (C = 46-75% inhibition) | C (C = 46-75% inhibition) | COc1cc(-c2sc3nc(-c4nccn4C)nc(N[C@@H]4CC[C@@H](OC)C4)c3c2-c2ccccc2)ccn1 (racemic) [Compound 47, N-((1R,3R)-3-Methoxycyclopentyl)-6-(2-methoxypyridin-4-yl)-2-(1-methyl-1H-imidazol-2-yl)-5-phenylthieno[2,3-d]pyrimidin-4-amine] | 76 to 100% |  | 
7 | D (D = 76-100% inhibition) | C (C = 46-75% inhibition) | C (C = 46-75% inhibition) | D (D = 76-100% inhibition) | D (D = 76-100% inhibition) | D (D = 76-100% inhibition) | D (D = 76-100% inhibition) | B (B = 26-45% inhibition) | B (B = 26-45% inhibition) | COc1cccc(-c2sc3nc(-c4nccn4C)nc(N[C@H]4C[C@H](OC)C4)c3c2C)c1F [Compound 42, 6-(2-Fluoro-3-methoxyphenyl)-N-((1r,3r)-3-methoxycyclobutyl)-5-methyl-2-(1-methyl-1H-imidazol-2-yl)thieno[2,3-d]pyrimidin-4-amine] |  | 46 to 75% | 0%
8 | D (D = 76-100% inhibition) | B (B = 26-45% inhibition) | C (C = 46-75% inhibition) | D (D = 76-100% inhibition) | C (C = 46-75% inhibition) | C (C = 46-75% inhibition) | C (C = 46-75% inhibition) | C (C = 46-75% inhibition) | C (C = 46-75% inhibition) | COc1nccc(-c2sc3nc(-c4nccn4C)nc(N[C@H]4C[C@H](OC)C4)c3c2-c2ccccc2)c1F [Compound 45, 6-(3-Fluoro-2-methoxypyridin-4-yl)-N-((1r,3r)-3-methoxycyclobutyl)-2-(1-methyl-1H-imidazol-2-yl)-5-phenylthieno[2,3-d]pyrimidin-4-amine] | 76 to 100% |  | 
9 | D (D = 76-100% inhibition) | B (B = 26-45% inhibition) | C (C = 46-75% inhibition) | D (D = 76-100% inhibition) | C (C = 46-75% inhibition) | C (C = 46-75% inhibition) | C (C = 46-75% inhibition) | C (C = 46-75% inhibition) | C (C = 46-75% inhibition) | COc1cc(-c2sc3nc(-c4nccn4C)nc(N[C@H]4C[C@H](OC)C4)c3c2-c2ccccc2)ccn1 [Compound 46, N-((1r,3r)-3-Methoxycyclobutyl)-6-(2-methoxypyridin-4-yl)-2-(1-methyl-1H-imidazol-2-yl)-5-phenylthieno[2,3-d]pyrimidin-4-amine] | 76 to 100% |  | 
